Measured values published in EP1552850A2, “A combination of FBPase inhibitors and insulin sensitizers for the treatment of diabetes” (priority 1998, dated 2000).

Assays:
type 2 diabetics = conditions: clinic; cited from earlier work
ZDF rat [1] = test: Combination treatment with Troglitazone and Compound G or Compound J in the ZDF rat - blood glucose; format: in vivo, Zucker Diabetic Fatty (ZDF) rat; conditions: for Blood Glucose, Day 0: baseline
Procedure: At 11 weeks of age, animals with blood glucose >500 mg/dl were selected and divided into 4 treatment groups (n=8/group). […] Blood glucose levels were measured in tail vein samples by means of a HemoCue glucose analyzer (HemoCue Inc., Mission Viejo, CA). Values are expressed as the mean plus or minus the standard error of the mean. Differences between groups were evaluated by analysis of variance with the Tukey-Kramer post hoc test.

db/db Mouse = test: Combination treatment with Troglitazone and Compound G in the db/db mouse - blood glucose; conditions: db/db mice, baseline
Procedure: Male db/db mice were purchased at 8 weeks of age from Jackson Labs (Bar Harbor, Maine). […] At 10 weeks of age, animals with blood glucose >400 mg/dl and <900 mg/dl were selected and divided into 4 treatment groups (n=5-6/group). […] Treatment was for 18 days. […] Blood glucose levels were measured in tail vein samples by means of a HemoCue glucose analyzer (HemoCue Inc., Mission Viejo, CA). Values are expressed as the mean plus or minus the standard error of the mean. Differences between groups were evaluated by analysis of variance with the Tukey-Kramer post hoc test. Results are considered significant with p<0.05.

[2] = Hepatic and plasma drug metabolite levels after Compound A p.o. in rats; format: in vivo, SpragueDawley rats; conditions: after Compound A 250 mg/kg by oral gavage; 8 hours sampling
Procedure: Compound A was administered by oral gavage to freely-feeding SpragueDawley rats (250-300g). The compound was prepared as a suspension in carboxymethylcellulose, and administered at a dose of 250 mg/kg. For the determination of liver metabolites, rats were serially sacrificed over the course of 24 hours after drug administration. Livers were freeze-clamped, homogenized in perchloric acid, neutralized, and then analyzed for Compound B by anion exchange HPLC.
For the determination of plasma metabolites, rats were instrumented with carotid catheters prior to oral dosing. Blood samples were withdrawn via the catheters at appropriate time points over the course of 8 hours post drug administration. Plasma was prepared from the blood samples by centrifugation, and plasma protein precipitated by the addition of methanol to 60%. Compound A metabolites were quantitated by reverse phase HPLC in the deproteinated plasma samples. A C18 column (1.4 cm X 250 mm) was equilibrated with 10 mM sodium phosphate, pH 5.5 and eluted with a gradient from this buffer to acetonitrile. Detection was at 254 nm.

Rat Hepatocytes = test: Inhibition of Glucose Production and Elevation of Fructose-1,6-Bisphosphate Levels in Rat Hepatocytes; format: cell-based
Procedure: Hepatocytes were prepared from fed Sprague-Dawley rats (250-300 g) according to the procedure of Berry and Friend (Berry, M.N., Friend, D.S., 1969, J. Cell. Biol. 43, 506-520) as modified by Groen (Groen, A.K., Sips, H.J., Vervoom, R.C., Tager, J.M. , 1982, Eur. J. Biochem. 122, 87-93). Hepatocytes (75 mg wet weight/ml) were incubated in 1 ml Krebs-bicarbonate buffer containing 10 mM Lactate, 1 mM pyruvate, 1 mg/ml BSA, and test compound concentrations from 0 to 500 µM. Incubations were carried out in a 95% oxygen, 5% carbon dioxide atmosphere in closed, 50-ml Falcon tubes submerged in a rapidly shaking water bath (37°C). After 1 hour, an aliquot (0.25 ml) was removed, transferred to an Eppendorf tube and centrifuged. 50 µl of supernatant was then assayed for glucose content using a Sigma Glucose Oxidase kit as per the manufacturer's instructions.
Rat hepatocytes were isolated and incubated as described in Example C. Cell extracts, were analyzed for glucose content as described in Example C, and also for fructose 1,6-bisphosphate. Fructose 1,6-bisphosphate was assayed spectrophotometrically by coupling its enzymatic conversion to glycerol 3-phosphate to the oxidation of NADH, which was monitored at 340 nm. […] After a 30 minute preincubation at 37°C, 1 unit/mi of aldolase was added and the change in absorbance measured until a stable value was obtained. […]

ZDF rat [3] = conditions: in vivo
Procedure: At 11 weeks of age, animals with blood glucose >500 mg/dl were selected and divided into 4 treatment groups (n=8/group). […] Values are expressed as the mean plus or minus the standard error of the mean. Differences between groups were evaluated by analysis of variance with the Tukey-Kramer post hoc test.
Plasma was prepared by centrifugation and triglyceride levels then measured by means of a standard assay kit according to the instructions of the manufacturer (Sigma Chemical Company). Differences between groups were evaluated by analysis of variance with the Tukey-Kramer post hoc test. Results are considered significant with p<0.05.

[4] = Oral Bioavailability Determination (urinary excretion method); format: in vivo, Sprague Dawley rats; conditions: rat, oral 10-40 mg/kg vs intravenous parent, 24 hours urine
Procedure: The oral bioavailability of prodrugs and parent compounds was determined by the urinary excretion method in the rat. Prodrugs were dissolved in 10% ethanol/90% polyethylene glycol (mw 400) and administered by oral gavage at doses of 10 to 40 mg/kg parent compound equivalents to 6-hour fasted, Sprague Dawley rats (220-240 g). Parent compounds were typically dissolved in deionized water, neutralized with sodium hydroxide, and then administered orally at 10-40 mg/kg or intravenously at ~10 mg/kg. The rats were subsequently placed in metabolic cages and urine was collected for 24 hours. The quantity of parent compound excreted into urine was determined by HPLC analysis as described in Example F. Analysis was performed as described in Example F. For prodrugs, the percentage oral bioavailability was estimated by comparison of the recovery in urine of the parent compound generated from the prodrug administered orally, to that recovered in urine following intravenous administration of the corresponding parent compound. For parent compounds, the percentage oral bioavailability was estimated by comparison of the recovery in urine of the parent compound when administered orally to that recovered when administered intravenously.

[5] = Troglitazone-Compound J study, Troglitazone 0.2%, Compound J 0.4%

Cc1c(C)c2c(c(C)c1O)CCC(C)(COc1ccc(CC3SC(=O)NC3=O)cc1)O2 (stereo not shown) [Troglitazone]
hepatotoxicity, elevation of liver enzymes (type 2 diabetics): 1 % of patients | Blood Glucose, Day 0 (ZDF rat [1]; Troglitazone-Compound G study, 0.2% food admixtures): 655 ± 33 mg/dL | Blood Glucose, Day 0 (db/db Mouse): 710 ± 44 mg/dL

NC(=O)c1ncn([C@@H]2O[C@H](CO)[C@@H](O)[C@H]2O)c1Br [5-bromo-1-βD-ribofuranosyl-imidazole-carboxamide]
detection in plasma [2]: detectable

CCc1cc(F)c(N)c2nc(-c3ccc(P(=O)(O)O)o3)n(CC(C)C)c12 [Compound E]
intracellular fructose 1,6-bisphosphate (Rat Hepatocytes): dose-dependent elevation

CCOC(=O)[C@H](C)NP(=O)(N[C@@H](C)C(=O)OCC)c1ccc(-c2nc(N)sc2CC(C)C)o1 [Compound J, 2-Amino-5-isobutyl-4-{2-[5-(N,N'-bis((S)-1-ethoxycarbonyl)ethyl)phosphonamido]furanyl}thiazole]
Blood Glucose, Day 0 (ZDF rat [1]; [5]): 674 ± 20 mg/dL | Blood Glucose, Day 21 (ZDF rat [1]; [5]): 452 ± 40 mg/dL | blood glucose lowering, pilot studies (ZDF rat [1]; ZDF rat, food admixture dose finding): trend (not significant) towards more pronounced blood glucose lowering at 0.4% than at 0.2% | elevation of plasma triglycerides (ZDF rat [3]): ~2 fold

CSc1nc(-c2ccc(P(=O)(O)O)o2)c(CC(C)C)s1 [Compound H, 2-Methylthio-5-isobutyl-4-[2-(5-phosphono)furanyl]thiazole]
Oral bioavailability, % [4]: 4%
